For one data set, the system named is EEG. As to the kind of experiment: Reference Example: EEG test in the same manner as in Test Example 4. In kind it is in vivo, human (healthy Japanese men and women, 20 to 39 years old). The note with it: 10-ppm aqueous solution, same manner as Test Example 4 (EEG), 20 subjects. The method, then: Each subject was instructed to wear an electroencephalograph (model number: HARU-2, manufactured by PGV Co., Ltd.), and to wait for 5 minutes at rest, and then asked to answer a questionnaire for one minute. Subsequently, each subject was instructed to ingest 200 mL of the test beverage within 5 minutes, and thereafter, to wait at rest except for answering the questionnaire for one minute immediately after the ingestion, 15 minutes after the ingestion, 30 minutes after the ingestion and 45 minutes after the ingestion. The EEG were measured from before the ingestion of the test beverage until 45 minutes after the ingestion. The same measurement was carried out one more time. The beverage to be ingested was selected at random for each subject, and each subject was instructed to ingest each beverage once.
In the analysis of EEG, the data obtained during the questionnaires and the ingestion that affect the EEG were excluded from the analysis target. The EEG measured during each waiting time at rest before and after the ingestion were analyzed using the MNE library (ver. 1.3.0) in Python language, and the B/a ratio was calculated from the two-minute data. No exclusion of target data was allowed, and all cases were analyzed as the target.
The test was carried out in the same manner as in Test Example 4, using a 10-ppm aqueous solution of each of: geraniol, which is the isomer of nerol; α-terpineol, which is a degradation product of nerol; and linalool, on 20 healthy Japanese men and women with ages ranging from 20 years old to 39 years old, as the subjects. As a result, the effect of enhancing activation was not observed in any of geraniol, α-terpineol and linalool.

In another data set the test system is brain blood flow. The note with it: humans exposed to nerol and geraniol (aroma components of lemongrass extract); cited from earlier work.
A further data set deals with rats. As to conditions: cited from earlier work.

The values below come from patent US20260294838A1, “ACTIVATION ENHANCER AND FOOD AND DRINK FOR ENHANCING ACTIVATION” (Asahi Group Holdings, Ltd., priority 2023, published 2026).

As to `CC(C)=CCC/C(C)=C/CO` [geraniol], the “effect of enhancing activation” value in the data set on EEG is given as “not observed”. Further, the “amount of brain blood flow” value in the data set with brain blood flow is “increased significantly”.

For `C=CC(C)(O)CCC=C(C)C` (centres unmarked) [linalool], the “effect of enhancing activation” value in the data set on EEG is “not observed”.

For `CC(C)=CCC/C(C)=C\CO` [nerol, (Z)-3,7-dimethyl-2,6-octadien-1-ol], the “amount of brain blood flow” value in the data set on brain blood flow was “increased significantly”. Moreover, the “acceptable daily intake (ADI) per person” value in the data set on rats (calculated, assuming an adult with a body weight of 50 kg) was 95.5 mg/person/day. For the same compound, the “acceptable daily intake (ADI)” value in the data set with rats (calculated) is given as 1.91 mg/kg/day. In the data set with rats (repeated dose toxicity study on rats), the “no-observed adverse effect level (NOAEL), lowest value” is listed as 191 mg/kg/day.

Turning to `CC1=CCC(C(C)(C)O)CC1` (stereo not drawn) [α-terpineol], in the data set with EEG, the “effect of enhancing activation” value is reported as “not observed”.
